In article PMC10000267, “ALA‐A2 Is a Novel Anticancer Peptide Inspired by Alpha‐Lactalbumin: A Discovery from a Computational Peptide Library, In Silico Anticancer Peptide Screening and In Vitro Experimental Validation” (Global Challenges, 2023):
Residues, ends and D or L forms follow the SMILES beside them.

Key:
Human red blood cells = experiment: Ex vivo hemolysis assay (RBC lysis assay); format: cell-based; conditions: ≈0.8% v/v human RBC suspension in 0.9% normal saline, peptide 200 µM, 1 h, room temperature, absorbance 415 nm, relative to 1% Triton X‐100; blood of three healthy individuals, mean ± SD
Experimental: The hemolysis assay was as described previously.^[ [30] ^] After informed consent, peripheral blood (3 mL) was collected from three healthy individuals into heparin tubes (BD Biosciences, NJ, USA). The specimen was centrifuged at 2000 × g for 5 min at room temperature, and the plasma was discarded. The RBCs were washed twice with PBS and then resuspended in 0.9% normal saline solution at a volume equivalent to that of the original plasma. Approximately 0.8% v/v RBC suspension was incubated with the peptides at 200 µM (100 µL final volume) in a U‐bottom 96‐well plate at room temperature for 1 h with agitation. 1% v/v Triton X‐100 was applied as a positive control. The untreated condition served as the blank control. After 1 h incubation, the supernatants were collected by centrifuging at 2000 × g for 5 min at room temperature. The absorbance of hemoglobin in the supernatant was measured at 415 nm. The hemolysis percentage was calculated as follows: (2) % Hemolysis = [sample absorbance−blank control/positive control−blank control] × 100

A549 cells = experiment: Autophagy activity assay; format: cell-based, human; conditions: A549, 200 µM, 24 h; autophagosome/autophagolysosome signal normalised to nuclear signal; three biological replicates
Experimental: A549 cells (1 × 10^4 cells/well in a 96‐well plate) were treated with 200 µM ALA‐A2. Treated cells were maintained for 24 h before determining autophagy activity using an autophagy assay kit (ab139484, Abcam, Milpitas, CA). To prepare for the staining, the media was removed, and the cells were washed once with 1× assay buffer. The dual color detection solution was added to the wells and incubated for 30 min. The cells were washed and 1× assay buffer added to each well. The nuclear signal was excitation of 340 nm and […], whereas autophagosomes and autophagolysosomes were detected by excitation of 480 nm and emission of 530 nm. Autophagy activity was calculated by normalizing the autophagosome/autophagolysosome signal to the nuclear signal. Rapamycin (2 µM), a known autophagy inducer, was the positive control.^[ [33] ^] This experiment was performed in three biological replicates.

[1] = test system: HT29 colon adenocarcinoma cells; experiment: In vitro cancer cytotoxicity (MTT assay); format: cell-based, human; conditions: 24 h
Experimental: (§1) All cell lines were obtained from the American Type Culture Collection (ATCC, Manassas, VA, USA). The A549 lung adenocarcinoma (ATCC CCL‐185TM), MDA‐MB‐231 triple‐negative breast adenocarcinoma (ATCC HTB‐26TM), and SH‐SY5Y neuroblastoma (ATCC CRL‐2266TM) cell lines were cultured in Dulbecco's Modified Eagle's Medium (DMEM)‐high glucose (Gibco, Thermo Fisher Scientific, MA, USA). HT29 colon adenocarcinoma (ATCC HTB‐38) cell lines were maintained in DMEM/Nutrient Mixture F‐12 (Gibco). K562 chronic myeloid leukemia (ATCC CRL‐3344) were grown in Roswell Park Memorial Institute Medium 1640 (Gibco). The cells were cultured in medium supplemented with 10% fetal bovine serum (Gibco) and 1× penicillin/streptomycin (Gibco) and incubated in a 5% CO2 incubator with saturated humidity.
(§2) The protocol previously described by Chiangjong et al. and Baindara et al.^[ [5], [29] ^] was modified for use in determining the cytotoxicity of peptides on the various cancer types. Adherent cells were seeded at 1 × 10^4 cells/well into a 96‐well plate 24 h prior to replacing the media containing the peptide of interest. Suspended cells were seeded at 1 × 10^4 cells/well in the media containing the peptide of interest. Five human cell lines, including lung cancer (A549), colon cancer (HT29), breast cancer (MDA‐MB‐231), neuroblastoma (SH‐SY5Y), and leukemia (K562) cells, were treated with the culture media containing the peptides at 200 µM for 24 h. Cell viability was then determined using Cell Proliferation Kit I, MTT (Roche Diagnostics GmbH, Mannheim, Germany): MTT labeling reagent (10 µL) was added to each well and incubated at 37 °C in a 5% CO2 atmosphere for 4 h. After incubation, 100 µL solubilizing solution was added to each well and incubated at 37 °C in 5% CO2 overnight. The absorbance at 570 nm (A 570) was measured for each well. The percentage of cell viability was calculated as: (1) % Cell Viability=[A570 of treated cells − A570 of media/A570 of untreated cells−A570 of media] × 100
(§3) To evaluate dose‐dependency, ≈1 × 10^4 cells/well were cultured in media containing ALA‐A2 at 0, 6.25, 12.5, 25, 50, 100, 200, and 400 µM in a 96‐well plate for 24 h. Cell viability was determined by the MTT assay, as above.

[2] = test system: A549 lung adenocarcinoma cells; experiment: In vitro cancer cytotoxicity (MTT assay); format: cell-based, human; conditions: 24 h
Experimental: as §1, §2, §3

K562 leukemia cells = experiment: In vitro cancer cytotoxicity (MTT assay); format: cell-based, human; conditions: K562, peptide 200 µM, 24 h
Experimental: as §1, §2

[3] = test system: SH‐SY5Y neuroblastoma cells; experiment: In vitro cancer cytotoxicity (MTT assay); format: cell-based, human; conditions: peptide 200 µM, 24 h
Experimental: as §1, §2

[4] = test system: MDA‐MB‐231 breast cancer cells; experiment: In vitro cancer cytotoxicity (MTT assay); format: cell-based, human; conditions: MDA‐MB‐231, peptide 200 µM, 24 h
Experimental: as §1, §2

CC(C)C[C@H](NC(=O)[C@@H](N)CCCCN)C(=O)N[C@@H](Cc1c[nH]c2ccccc12)C(=O)N[C@@H](CS)C(=O)N[C@@H](CCCCN)C(=O)N[C@@H](CO)C(=O)N[C@@H](CO)C(=O)N[C@@H](CCC(N)=O)C(=O)N[C@H](C(=O)N1CCC[C@H]1C(=O)N[C@@H](CCC(N)=O)C(=O)N[C@@H](CO)C(=O)N[C@@H](CCCNC(=N)N)C(=O)O)C(C)C [ALA‐A2] (H-KLWCKSSQVPQSR-OH)
percent hemolysis (Human red blood cells): 7.8% ± 10.2%
autophagic activity (A549 cells): 1.5 fold of untreated cells
cell viability ([1]; HT29, peptide 200 µM, 37 °C, A570, mean ± SD, three biological replicates): 55.3 ± 2.7 % cell viability
IC50 ([1]; HT29, twofold serial dilutions 0 to 400 µM, extrapolated beyond the tested range): > 1000 µM
cell viability ([2]; A549, peptide 200 µM, 37 °C, A570, mean ± SD, three biological replicates): 59.7 ± 1.1 % cell viability
IC50 ([2]; A549, twofold serial dilutions 0 to 400 µM): ~300 µM
anticancer effect (in words) (K562 leukemia cells): did not affect
anticancer effect (in words) [3]: did not affect
anticancer effect (in words) [4]: did not affect
